In series [1] the target is estrogen receptors in MCF7 cells (Homo sapiens (Human), UniProt P03372). The series can be described thus: Degradation of estrogen receptors in MCF7 cells (in-cell western). Format: cell-based. Particulars: for DC50: 24 hours treatment, read-out: ER level DC50; for Dmax: 24 hours, 0.1 µM fulvestrant = 100% degradation control, read-out: Maximum degradation rate. The protocol:
The purpose of the experiment is to determine the degradation activity of the compounds of the present invention on endogenously expressed estrogen receptors in MCF7 cells, and to evaluate the activity of the compounds according to DC50 and maximum degradation efficiency.
MCF7 cells (ATCC, HTB-22) were cultured in DMEM (Gibco, 11995-065) complete medium containing 10% fetal bovine serum. On the first day of the experiment, MCF7 cells were inoculated in a 384-well plate at a density of 3000 cells/well using the complete medium, and cultured in a 37° C., 5% CO2 cell incubator. The compounds to be tested were dissolved in DMSO with a stock concentration of 10 mM, the solution was diluted with Echo 550 (Labcyte Inc.) and added to the cell culture plate. Each compound with the starting concentration for treatment of 100 nM was subjected to 3-fold gradient dilution with 9 concentration points. A blank control containing 0.5% DMSO was set, and double replicate wells as controls were set at each concentration point. The culture was cultured in a 37° C., 5% CO2 cell incubator for 24 hours. Paraformaldehyde was added to the cell culture medium in each cell culture well, and the final concentration of paraformaldehyde was about 3.7% to fix the cells. After the mixture was reacted for 30 minutes, the supernatant was discarded, and 50 µL of PBS was added to each well for washing once. The cells were treated with PBS containing 0.5% v/v Tween-20 for 30 minutes, and washed with PBS once. A blocking solution (PBS containing 5% BSA, 0.05% Tween-20) was added, and the mixture was incubated at room temperature for 1 hour. The blocking solution was removed, a mixture solution of primary antibodies (anti-ER mAb, Estrogen Receptor α (D8H8) Rabbit mAb, GST, # 8644S, 1 : 1000 dilution; anti-GAPDH mAb, GAPDH(D4C6R) Mouse mAb, GST, #97166S, 1 : 2000 dilution) was added, and the mixture was incubated at room temperature for 3 hours. The culture was washed with PBST (PBS containing 0.05% Tween-20) 3 times. Secondary antibodies for detection (800CW-goat anti-rabbit IgG, LI-COR, P/N: 926-32211, 1 : 1000 dilution; 680RD-goat anti-mouse IgG, LI-COR, #925-68070, 1 : 1000 dilution) were added, and the mixture was incubated at room temperature and in the dark for 45 minutes. After washing with PBST 3 times, the fluorescence signal of each well was read using Odyssey CLx, and the value of Chanel 800 (ER)/Chanel 680 (GAPDH) was calculated. The wells treated with 0.1 µM fulvestrant were used as the 100% degradation control, and the degradation rate at each concentration point was calculated. The data were analyzed and processed by XlLfit, and the degradation activity DC50 and the maximum degradation rate Imax of each compound were calculated.

Series [2] can be described thus: Plasma protein binding rate, equilibrium dialysis, rat plasma. The series is classed as in vitro ADME. As to conditions: pH 7.4, SD rat plasma, 6 hours dialysis. The method, then: The protein binding rate of the compounds of the present invention in the plasma of five species (human, monkey, dog, rat and mouse) was determined by the following test method.
• 1. Human plasma (BioIVT), beagle dog plasma (BioIVT), SD rat plasma (BioIVT), CD-1 mouse plasma (BioIVT); • 2. 96-well equilibrium dialysis plate (HTDialysis LLC, Gales Ferry, CT, HTD96B), equilibrium dialysis membrane (MWCO 12-14 K, #1101); • 3. Positive control compound warfarin; • 4. ABI QTrap 5500 liquid chromatography-mass spectrometry.
1. Preparation of a buffer with a concentration of 100 mM sodium phosphate and 150 mM NaCl: an alkaline solution with a concentration of 14.2 g/L Na2HPO4 and 8.77 g/L NaCl was prepared with ultrapure water, and an acidic solution with a concentration of 12.0 g/L NaH2PO4 and 8.77 g/L NaCl was prepared with ultrapure water. The alkaline solution was titrated with the acidic solution to pH 7.4 to prepare a buffer with a concentration of 100 mM sodium phosphate and 150 mM NaCl.
2. Preparation of dialysis membrane: the dialysis membrane was soaked in ultrapure water for 60 minutes to separate the membrane into two pieces, then soaked in 20% ethanol for 20 minutes, and finally soaked in the buffer used for dialysis for 20 minutes.
3. Preparation of plasma: the frozen plasma was quickly thawed at room temperature, then the plasma was centrifuged at 3,220 g at 4° C. for 10 min to remove clots, and the supernatant was collected into a new centrifuge tube. The pH of the plasma was measured and recorded, and the plasma with pH of 7-8 was used.
3. Preparation of compound-containing plasma samples: 10 mM stock solution of compounds of the present invention or positive control compounds were diluted with DMSO to obtain 200 µM working solution. […]
The peak areas of the compounds on the buffer side and the plasma side were determined. […]
All the data was calculated by the Microsoft Excel software. The plasma protein binding rate values of the compounds of the present invention were calculated.

SMILES strings stand for the structures.

estrogen receptors in MCF7 cells, sequence (P03372 whole entry): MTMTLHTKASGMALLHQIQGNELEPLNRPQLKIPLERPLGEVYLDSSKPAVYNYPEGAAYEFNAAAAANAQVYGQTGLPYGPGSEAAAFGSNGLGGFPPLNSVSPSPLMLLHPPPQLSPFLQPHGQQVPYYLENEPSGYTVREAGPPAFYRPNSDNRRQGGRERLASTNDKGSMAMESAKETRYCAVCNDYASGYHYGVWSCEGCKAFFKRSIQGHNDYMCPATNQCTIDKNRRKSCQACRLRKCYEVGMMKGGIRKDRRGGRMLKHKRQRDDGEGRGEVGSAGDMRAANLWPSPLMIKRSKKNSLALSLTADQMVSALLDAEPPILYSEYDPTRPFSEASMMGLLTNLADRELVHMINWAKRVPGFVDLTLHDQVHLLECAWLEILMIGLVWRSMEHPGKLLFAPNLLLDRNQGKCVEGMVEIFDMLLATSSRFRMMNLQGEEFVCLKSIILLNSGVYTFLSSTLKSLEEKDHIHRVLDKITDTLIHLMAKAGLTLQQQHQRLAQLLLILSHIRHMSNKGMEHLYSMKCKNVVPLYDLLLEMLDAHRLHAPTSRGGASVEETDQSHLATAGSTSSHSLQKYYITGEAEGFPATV

By DC50 is commonly meant the concentration at which degradation of the target reaches its halfway point. By fraction unbound is commonly meant free concentration divided by total concentration. A lower fraction unbound goes with extensive binding. In the case of `C[C@@H]1Cc2c([nH]c3ccccc23)C(c2c(F)cc(N[C@H]3CCN(CCCF)C3)cc2F)N1CC(F)(F)F` (stereo in doubt) [Example 4, (S)-N-(3,5-difluoro-4-((1S,3R)-3-methyl-2-(2,2,2-trifluoroethyl)-2,3,4,9-tetrahydro-1H-pyridino[3,4-b]indol-1-yl)phenyl)-1-(3-fluoropropyl)pyrrolidin-3-amine], in series [1], the DC50 came out at 40 pM and the Dmax was determined as 99%. Further, the free fraction (fraction unbound) at 6 h, 1 µM in series [2] was 0.002.

As to `C[C@@H]1Cc2c([nH]c3ccccc23)C(c2c(F)cc(N[C@H]3CCN(CCCF)C3)cc2F)N1CC(F)(F)CO` (stereo in doubt) [Example 7, 3-((1S,3R)-1-(2,6-difluoro-4-(((S)-1-(3-fluoropropyl)pyrrolidin-3-yl)amino)phenyl)-3-methyl-3,4-dihydro-1H-pyridino [3,4-b]indole-2(9H)-yl)-2,2-difluoropropane-1-ol], in series [1], the DC50 was determined as 60 pM. The same compound had a fraction unbound at 6 h, 1 µM in series [2] of 0.015.

Take `C[C@@H]1Cc2c([nH]c3ccccc23)[C@@H](c2ccc(N[C@H]3CCN(CCCF)C3)cn2)N1CC(F)(F)F` [Example 3, N-((S)-1-(3-fluoropropyl)pyrrolidin-3-yl)-6-((1S,3R)-3-methyl-2-(2,2,2-trifluoroethyl)-2,3,4,9-tetrahydro-1H-pyridino[3,4-b]indol-1-yl)pyridine-3-amine]: in series [1], the half-maximal degradation concentration (DC50) stood at 150 pM and the Dmax was found to be 104%. The compound further gave a fraction unbound at 6 h, 1 µM in series [2] of 0.029.

(Values after patent US20230348459A1, “PYRROLIDINE COMPOUND AND USE THEREOF” (SIMCERE PHARMACEUTICAL CO., LTD., priority 2020, published 2023).)
